Experiments:
E. coli 22 = assay: Protective efficacy in experimental infection in mice; type: in vivo; details: male ICR mice, E. coli 22 i.p., survival after four days
Description: In determining the protective efficacy against experimental infections in mice, the test compound was dissolved in and diluted with sterile saline to provide prescribed concentrations of drug.
Male ICR-strain mice, aged 4 weeks were used in groups of ten mice. E. coli 22 was cultivated overnight at 37° C. on trypticase soy agar and then were suspended in a sterile saline to obtain microbial cell concentration of 9.0×10^7 CFU/ml. Mice were inoculated intraperitoneally with 0.2 ml of the suspension. Each of the test drugs was given intraperitoneally in various doses to a group of ten mice 24 hours before challenge.
Survival percent were found from the number of the surviving animals after four days of injection.

Mice (DDY male 5-6 W) = assay: Blood stream clearance of carbon; type: in vivo; details: carbon clearance measured 24 hours later
Description: 1. Carbon suspension. Rotoring drawing ink (170 mg carbon/ml.) was diluted to 1/5 of the original concentration in saline containing 1% gelatin. 2. 0.1% aqueous sodium carbonate solution. Mice (DDY male 5-6 W) were injected via the tail vein with a dose of 0.01 ml/g body weight of carbon. Blood samples were taken by means of a pointed capillary […] calibrated to hold a 50 μl and previously washed in heparin. This was plunged into the retroorbital venous sinus at the nasal angle of the eye. The samples were removed at 3 and 6 min. The blood was immediately discharged into 3.0 ml. of the sodium carbonate solution. This hemolyzed the blood and allowed the quantitation of carbon. The samples were then read in a spectrophotometer at 660 nm, the log concentration being obtained from a previously determined standard curve. The clearance value K may be determined by plotting log carbon concentration against time according to the following relationship; [formula] in which T1 and T2 represent the time in min when the sample were withdrawn and C1 and C2 represent the concentrations of carbon in the blood at the time T1 and T2, respectively. The aqueous solution of the drug as given was administered subcutaneously to mice. Twenty four hours later, blood stream clearance of carbon was measured. K value obtained with treated mice was compared with that of control mice.

“D-Lac-L-Ala-γ-D-Glu(α-OH)-(L)-[D-Lac-L-Ala-γ-D-Glu(α-OH)-(L)-mesoDAP-(D)-Gly]-(D)-mesoDAP-(L)-GlyOH [Example 13 (Step 2)]” was tested, and the “Survival (%)” value (E. coli 22; dose 1 mg/kg intraperitoneally 24 hours before challenge) was 100%, the “Survival (%)” value (E. coli 22; dose 10 mg/kg intraperitoneally 24 hours before challenge) was 100% and the “K treated/K control” value (Mice (DDY male 5-6 W); dose 1 mg/mouse subcutaneously) was 0.6. The “K treated/K control” value (Mice (DDY male 5-6 W); dose 100 mg/mouse subcutaneously) was 1.6.

From patent US4512980A, “Peptide, process for preparation thereof and use thereof” (priority 1979, dated 1985)
